molecular target: T1, human S1P1 receptors (Homo sapiens, UniProt P21453); experiment: S1P1R antagonist assay (fluorescent membrane potential dye, cAMP readout); type: cell-based; conditions: HEK293 cells expressing human S1P1 receptors and CNG channel; 500 nM NECA; S1P1R agonist 10 nM; 90 minutes; read-out: EC50 or IC50 value
T1 construct: host or cells: HEK293
T1 sequence (P21453 whole entry): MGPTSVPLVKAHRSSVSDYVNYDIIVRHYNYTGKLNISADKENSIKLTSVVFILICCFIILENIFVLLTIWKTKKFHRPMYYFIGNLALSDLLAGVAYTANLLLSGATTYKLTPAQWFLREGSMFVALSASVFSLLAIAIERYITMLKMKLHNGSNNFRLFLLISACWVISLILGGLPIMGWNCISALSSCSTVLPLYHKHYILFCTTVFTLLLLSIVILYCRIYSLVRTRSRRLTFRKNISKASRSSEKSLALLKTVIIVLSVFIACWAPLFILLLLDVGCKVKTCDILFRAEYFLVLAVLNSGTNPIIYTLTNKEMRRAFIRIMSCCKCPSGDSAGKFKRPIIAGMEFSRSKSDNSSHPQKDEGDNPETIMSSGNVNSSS

`COc1ccc(C(=O)NC(COCc2ccccc2)C(=O)Nc2ccc(Oc3ccccc3)cc2)cc1` (centres unmarked) [Compound 270, 4-(methyloxy)-N-(2-oxo-1-{[(phenylmethyl)oxy]methyl}-2-{[4-(phenyloxy)phenyl]amino}ethyl)benzamide] and `CCOc1ccc(C(=O)NC(COCc2ccccc2)C(=O)Nc2ccc(Oc3ccccc3)cc2)cc1` (centres unmarked) [Compound 281, 4-(ethyloxy)-N-(2-oxo-1-{[(phenylmethyl)oxy]methyl}-2-{[4-(phenyloxy)phenyl]amino}ethyl)benzamide] cannot be ordered by IC50: > 1000 nM for the first, > 1000 nM for the second.

`O=C(Cc1ccc(OCc2ccccc2)cc1)NC(COCc1ccccc1)C(=O)Nc1ccc(Oc2ccccc2)cc1` (centres unmarked) [Compound 271, 4-benzyloxy-N-(2-oxo-1-{[(phenylmethyl)oxy]methyl}-2-{[4-(phenyloxy)phenyl]amino}ethyl)phenylacetamide] and `O=C(COc1ccccc1)NC(COCc1ccccc1)C(=O)Nc1ccc(Oc2ccccc2)cc1` (centres unmarked) [Compound 289, N-(2-oxo-1-{[(phenylmethyl)oxy]methyl}-2-{[4-(phenyloxy)phenyl]amino}ethyl)phenoxyacetamide] cannot be ordered by IC50: > 1000 nM for the first, > 1000 nM for the second.

`COc1ccc(Br)c(C(=O)NC(COCc2ccccc2)C(=O)Nc2ccc(Oc3ccccc3)cc2)c1` (centres unmarked) [Compound 272, 2-bromo-5-(methyloxy)-N-(2-oxo-1-{[(phenylmethyl)oxy]methyl}-2-{[4-(phenyloxy)phenyl]amino}ethyl)benzamide] and `COc1cccc(CC(=O)NC(COCc2ccccc2)C(=O)Nc2ccc(Oc3ccccc3)cc2)c1` (centres unmarked) [Compound 285, N-(2-oxo-1-{[(phenylmethyl)oxy]methyl}-2-{[4-(phenyloxy)phenyl]amino}ethyl)-3-methoxyphenylacetamide] cannot be ordered by IC50: > 1000 nM for the first, > 1000 nM for the second.

`CCCC(=O)NC(COCc1ccccc1)C(=O)Nc1ccc(Oc2ccccc2)cc1` (centres unmarked) [Compound 273, N-(2-oxo-1-{[(phenylmethyl)oxy]methyl}-2-{[4-(phenyloxy)phenyl]amino}ethyl)butanamide] and `CCCCCC(=O)NC(COCc1ccccc1)C(=O)Nc1ccc(Oc2ccccc2)cc1` (centres unmarked) [Compound 295, N-(2-oxo-1-{[(phenylmethyl)oxy]methyl}-2-{[4-(phenyloxy)phenyl]amino}ethyl)hexanamide] cannot be ordered by IC50: > 1000 nM for the first, > 1000 nM for the second.

`O=C(NC(COCc1ccccc1)C(=O)Nc1ccc(Oc2ccccc2)cc1)c1ccccc1Cl` (centres unmarked) [Compound 274, 2-chloro-N-(2-oxo-1-{[(phenylmethyl)oxy]methyl}-2-{[4-(phenyloxy)phenyl]amino}ethyl)benzamide] and `O=C(NC(COCc1ccccc1)C(=O)Nc1ccc(Oc2ccccc2)cc1)c1cccc(Cl)c1F` (centres unmarked) [Compound 299, 3-chloro-2-fluoro-N-(2-oxo-1-{[(phenylmethyl)oxy]methyl}-2-{[4-(phenyloxy)phenyl]amino}ethyl)benzamide] cannot be ordered by IC50: > 1000 nM for the first, > 1000 nM for the second.

`O=C(NC(COCc1ccccc1)C(=O)Nc1ccc(Oc2ccccc2)cc1)c1cccc(Cl)c1` (centres unmarked) [Compound 275, 3-chloro-N-(2-oxo-1-{[(phenylmethyl)oxy]methyl}-2-{[4-(phenyloxy)phenyl]amino}ethyl)benzamide] and `O=C(NC(COCc1ccccc1)C(=O)Nc1ccc(Oc2ccccc2)cc1)c1ccc(Cl)cc1` (centres unmarked) [Compound 276, 4-chloro-N-(2-oxo-1-{[(phenylmethyl)oxy]methyl}-2-{[4-(phenyloxy)phenyl]amino}ethyl)benzamide] cannot be ordered by IC50: > 1000 nM for the first, > 1000 nM for the second.

Compared with `O=C(NC(COCc1ccccc1)C(=O)Nc1ccc(Oc2ccccc2)cc1)C1CC1` (centres unmarked) [Compound 277, N-(2-oxo-1-{[(phenylmethyl)oxy]methyl}-2-{[4-(phenyloxy)phenyl]amino}ethyl)cyclopropylamide], `COCC(=O)NC(COCc1ccccc1)C(=O)Nc1ccc(Oc2ccccc2)cc1` (centres unmarked) [Compound 284, N-(2-oxo-1-{[(phenylmethyl)oxy]methyl}-2-{[4-(phenyloxy)phenyl]amino}ethyl)-2-methoxyacetamide] is higher in IC50: ≤ 300 nM for the first, > 1000 nM for the second.

`O=C(CCC1CCCC1)NC(COCc1ccccc1)C(=O)Nc1ccc(Oc2ccccc2)cc1` (centres unmarked) [Compound 278, N-(2-oxo-1-{[(phenylmethyl)oxy]methyl}-2-{[4-(phenyloxy)phenyl]amino}ethyl)-3-cyclopentylpropanamide] and `C=CCCC(=O)NC(COCc1ccccc1)C(=O)Nc1ccc(Oc2ccccc2)cc1` (centres unmarked) [Compound 298, N-(2-oxo-1-{[(phenylmethyl)oxy]methyl}-2-{[4-(phenyloxy)phenyl]amino}ethyl)pent-4-enamide] cannot be ordered by IC50: > 1000 nM for the first, > 1000 nM for the second.

`Cc1ccc(C(=O)NC(COCc2ccccc2)C(=O)Nc2ccc(Oc3ccccc3)cc2)cc1C` (centres unmarked) [Compound 279, 3,4-dimethyl-N-(2-oxo-1-{[(phenylmethyl)oxy]methyl}-2-{[4-(phenyloxy)phenyl]amino}ethyl)benzamide] and `CN(C)c1ccc(C(=O)NC(COCc2ccccc2)C(=O)Nc2ccc(Oc3ccccc3)cc2)cc1` (centres unmarked) [Compound 294, 4-(dimethylamino)-N-(2-oxo-1-{[(phenylmethyl)oxy]methyl}-2-{[4-(phenyloxy)phenyl]amino}ethyl)benzamide] cannot be ordered by IC50: > 1000 nM for the first, > 1000 nM for the second.

`COc1ccc(OC)c(CC(=O)NC(COCc2ccccc2)C(=O)Nc2ccc(Oc3ccccc3)cc2)c1` (centres unmarked) [Compound 280, N-(2-oxo-1-{[(phenylmethyl)oxy]methyl}-2-{[4-(phenyloxy)phenyl]amino}ethyl)-2,5-dimethoxyphenylacetamide] and `COc1ccc(CCC(=O)NC(COCc2ccccc2)C(=O)Nc2ccc(Oc3ccccc3)cc2)cc1` (centres unmarked) [Compound 304, N-(2-oxo-1-{[(phenylmethyl)oxy]methyl}-2-{[4-(phenyloxy)phenyl]amino}ethyl)-3-(4-methoxyphenyl)propanamide] cannot be ordered by IC50: > 1000 nM for the first, > 1000 nM for the second.

`CCCCC(CC)C(=O)NC(COCc1ccccc1)C(=O)Nc1ccc(Oc2ccccc2)cc1` (centres unmarked) [Compound 282, N-(3-(benzyloxy)-1-oxo-1-(4-phenoxyphenylamino)propan-2-yl)-2-ethylhexanamide] and `CCCC(C)C(=O)NC(COCc1ccccc1)C(=O)Nc1ccc(Oc2ccccc2)cc1` (centres unmarked) [Compound 286, 2-methyl-N-(2-oxo-1-{[(phenylmethyl)oxy]methyl}-2-{[4-(phenyloxy)phenyl]amino}ethyl)pentanamide] cannot be ordered by IC50: > 1000 nM for the first, > 1000 nM for the second.

`O=C(NC(COCc1ccccc1)C(=O)Nc1ccc(Oc2ccccc2)cc1)c1ccco1` (centres unmarked) [Compound 283, N-(2-oxo-1-{[(phenylmethyl)oxy]methyl}-2-{[4-(phenyloxy)phenyl]amino}ethyl)furan-2-carboxamide] and `O=C(NC(COCc1ccccc1)C(=O)Nc1ccc(Oc2ccccc2)cc1)c1cccs1` (centres unmarked) [Compound 292, N-(2-oxo-1-{[(phenylmethyl)oxy]methyl}-2-{[4-(phenyloxy)phenyl]amino}ethyl)thiophene-2-carboxamide] cannot be ordered by IC50: > 1000 nM for the first, > 1000 nM for the second.

First: CC(C)CCC(=O)NC(COCc1ccccc1)C(=O)Nc1ccc(Oc2ccccc2)cc1 (centres unmarked) [Compound 287, 4-methyl-N-(2-oxo-1-{[(phenylmethyl)oxy]methyl}-2-{[4-(phenyloxy)phenyl]amino}ethyl)pentanamide]
Second: COCCOCC(=O)NC(COCc1ccccc1)C(=O)Nc1ccc(Oc2ccccc2)cc1 (centres unmarked) [Compound 303, N-(2-oxo-1-{[(phenylmethyl)oxy]methyl}-2-{[4-(phenyloxy)phenyl]amino}ethyl)-2-methoxyethoxyacetamide]
The IC50 of the first is higher: > 1000 nM for the first, 300 to 1000 nM for the second. The second is the more potent here.

First: O=C(NC(COCc1ccccc1)C(=O)Nc1ccc(Oc2ccccc2)cc1)c1ccc2ccccc2c1 (centres unmarked) [Compound 288, N-(2-oxo-1-{[(phenylmethyl)oxy]methyl}-2-{[4-(phenyloxy)phenyl]amino}ethyl)naphthalene-2-carboxamide]
Second: O=C(Cc1ccccc1Br)NC(COCc1ccccc1)C(=O)Nc1ccc(Oc2ccccc2)cc1 (centres unmarked) [Compound 301, N-(2-oxo-1-{[(phenylmethyl)oxy]methyl}-2-{[4-(phenyloxy)phenyl]amino}ethyl)-2-bromophenylacetamide]
The IC50 of the first is higher: > 1000 nM for the first, 300 to 1000 nM for the second. The second is the more potent here.

`O=C(NC(COCc1ccccc1)C(=O)Nc1ccc(Oc2ccccc2)cc1)c1cccnc1Oc1ccccc1` (centres unmarked) [Compound 290, N-(2-oxo-1-{[(phenylmethyl)oxy]methyl}-2-{[4-(phenyloxy)phenyl]amino}ethyl)-2-(phenyloxy)pyridine-3-carboxamide] and `O=C(NC(COCc1ccccc1)C(=O)Nc1ccc(Oc2ccccc2)cc1)c1cccnc1Cl` (centres unmarked) [Compound 296, 2-chloro-N-(2-oxo-1-{[(phenylmethyl)oxy]methyl}-2-{[4-(phenyloxy)phenyl]amino}ethyl)pyridine-3-carboxamide] cannot be ordered by IC50: > 1000 nM for the first, > 1000 nM for the second.

`COc1cc(C(=O)NC(COCc2ccccc2)C(=O)Nc2ccc(Oc3ccccc3)cc2)cc(OC)c1OC` (centres unmarked) [Compound 291, 3,4,5-tris(methyloxy)-N-(2-oxo-1-{[(phenylmethyl)oxy]methyl}-2-{[4-(phenyloxy)phenyl]amino}ethyl)benzamide] and `O=C(NC(COCc1ccccc1)C(=O)Nc1ccc(Oc2ccccc2)cc1)c1sc2ccccc2c1Cl` (centres unmarked) [Compound 297, 3-chloro-N-(2-oxo-1-{[(phenylmethyl)oxy]methyl}-2-{[4-(phenyloxy)phenyl]amino}ethyl)-1-benzothiophene-2-carboxamide] cannot be ordered by IC50: > 1000 nM for the first, > 1000 nM for the second.

`O=C(Cc1cccs1)NC(COCc1ccccc1)C(=O)Nc1ccc(Oc2ccccc2)cc1` (centres unmarked) [Compound 293, N-(2-oxo-1-{[(phenylmethyl)oxy]methyl}-2-{[4-(phenyloxy)phenyl]amino}ethyl)thien-2-ylacetamide] and `O=C(CCCc1ccccc1)NC(COCc1ccccc1)C(=O)Nc1ccc(Oc2ccccc2)cc1` (centres unmarked) [Compound 300, N-(2-oxo-1-{[(phenylmethyl)oxy]methyl}-2-{[4-(phenyloxy)phenyl]amino}ethyl)-4-phenylbutanamide] cannot be ordered by IC50: > 1000 nM for the first, > 1000 nM for the second.

For `O=C(NC(COCc1ccccc1)C(=O)Nc1ccc(Oc2ccccc2)cc1)C1CCN(c2nccc(C(F)(F)F)n2)CC1` (centres unmarked) [Compound 302, N-(2-oxo-1-{[(phenylmethyl)oxy]methyl}-2-{[4-(phenyloxy)phenyl]amino}ethyl)-1-[4-(trifluoromethyl)pyrimidin-2-yl]piperidine-4-carboxamide], the IC50 was > 1000 nM.
